Biological target: human Cat S (Homo sapiens, UniProt P25774)
Assay: Cathepsin enzyme inhibition assay (fluorogenic peptide substrate cleavage)
Format: biochemical
Details: human Cat S 1 nM; substrate Z-Val-Val-Arg-AMC 20 μM; pH 6.5; fluorescence over 20 minutes
Summary of the method: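 IC50 values derived from fluorescence increase (ex 360 nm, em 465 nm) monitored for 20 minutes after substrate addition. Enzyme held at 1 nM with 20 μM Z-Val-Val-Arg-AMC, in pH 6.5 potassium phosphate buffer containing DTT, EDTA and Triton X-100.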

Sequence of human Cat S (P25774 115-331): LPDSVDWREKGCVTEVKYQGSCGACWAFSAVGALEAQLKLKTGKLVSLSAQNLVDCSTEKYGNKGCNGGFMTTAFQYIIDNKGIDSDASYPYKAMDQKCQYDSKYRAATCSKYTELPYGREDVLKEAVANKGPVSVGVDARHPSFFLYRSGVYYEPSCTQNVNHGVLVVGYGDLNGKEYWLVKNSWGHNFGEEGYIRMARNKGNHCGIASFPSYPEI

Compound	IC50 [nM]
CO[C@@H]1C[C@H](S(=O)(=O)c2ccc(-n3cc(C)cn3)cc2Cl)C[C@H]1C(=O)NC1(C#N)CC1 (racemic) [Example 149, (1R,2R,4R) and (1S,2S,4S)-4-[2-Chloro-4-(4-methyl-pyrazol-1-yl)-benzenesulfonyl]-2-methoxy-cyclopentanecarboxylic acid (1-cyano-cyclopropyl)-amide]	1.93
Cc1ccc(CO[C@@H]2C[C@H](S(=O)(=O)c3ccccc3Cl)C[C@H]2C(=O)NC2(C#N)CC2)cc1 (racemic) [Example 150, (1R,2R,4R) and (1S,2S,4S)-4-(2-Chlorophenylsulfonyl)-N-(1-cyanocyclopropyl)-2-(4-methylbenzyloxy)cyclopentanecarboxamide]	4.15
N#CC1(NC(=O)[C@@H]2C[C@@H](S(=O)(=O)c3ccccc3Cl)C[C@H]2OCc2ccc(Cl)cc2C(F)(F)F)CC1 (racemic) [Example 151, (1R,2R,4R) and (1S,2S,4S)-2-(4-Chloro-2-(trifluoromethyl)benzyloxy)-4-(2-chlorophenylsulfonyl)-N-(1-cyanocyclopropyl)cyclopentanecarboxamide]	2.99
N#CC1(NC(=O)[C@@H]2C[C@@H](S(=O)(=O)c3ccccc3Cl)C[C@H]2OCc2ccc(Br)cc2)CC1 (racemic) [Example 154, (1R,2R,4R) and (1S,2S,4S)-2-(4-Bromo-benzyloxy)-4-(2-chloro-benzenesulfonyl)-cyclopentanecarboxylic acid (1-cyano-cyclopropyl)-amide]	7.55
CO[C@@H]1C[C@H](S(=O)(=O)c2ccc(N3CCN(C)CC3)cc2C(F)(F)F)C[C@H]1C(=O)NC1(C#N)CC1 (racemic) [Example 161, (1R,2R,4R) and (1S,2S,4S)-2-Methoxy-4-[4-(4-methyl-piperazin-1-yl)-2-trifluoromethyl-benzenesulfonyl]-cyclopentanecarboxylic acid (1-cyano-cyclopropyl)-amide]	1.5
N#CC1(NC(=O)[C@@H]2C[C@@H](S(=O)(=O)c3ccc(Br)cc3C(F)(F)F)C[C@H]2OC2CCOCC2)CC1 (racemic) [Example 169, (1R,2R,4R) and (1S,2S,4S)-4-(4-Bromo-2-trifluoromethyl-benzenesulfonyl)-2-(tetrahydro-pyran-4-yloxy)-cyclopentanecarboxylic acid (1-cyano-cyclopropyl)-amide]	1.23
CO[C@@H]1C[C@H](S(=O)(=O)c2ccc(-c3cnn(CCO)c3)cc2C(F)(F)F)C[C@H]1C(=O)NC1(C#N)CC1 (racemic) [Example 170, (1R,2R,4R) and (1S,2S,4S)-4-{4-[1-(2-Hydroxy-ethyl)-1H-pyrazol-4-yl]-2-trifluoromethyl-benzenesulfonyl}-2-methoxy-cyclopentanecarboxylic acid (1-cyano-cyclopropyl)-amide]	0.587
CO[C@@H]1C[C@H](S(=O)(=O)c2ccc(-c3ccccc3)cc2C(F)(F)F)C[C@H]1C(=O)NC1(C#N)CC1 (racemic) [Example 171, (1R,2R,4R) and (1S,2S,4S)-2-Methoxy-4-(3-trifluoromethyl-biphenyl-4-sulfonyl)-cyclopentanecarboxylic acid (1-cyano-cyclopropyl)-amide]	1.2
COCCn1cc(-c2ccc(S(=O)(=O)[C@H]3C[C@@H](OC)[C@H](C(=O)NC4(C#N)CC4)C3)c(C(F)(F)F)c2)cn1 (racemic) [Example 172, (1R,2R,4R) and (1S,2S,4S)-2-Methoxy-4-{4-[1-(2-methoxy-ethyl)-1H-pyrazol-4-yl]-2-trifluoromethyl-benzenesulfonyl}-cyclopentanecarboxylic acid (1-cyano-cyclopropyl)-amide]	0.435
Cn1cc(-c2ccc(S(=O)(=O)[C@H]3C[C@@H](OC4CCOCC4)[C@H](C(=O)NC4(C#N)CC4)C3)c(C(F)(F)F)c2)cn1 (racemic) [Example 173, (1R,2R,4R) and (1S,2S,4S)-4-[4-(1-Methyl-1H-pyrazol-4-yl)-2-trifluoromethyl-benzenesulfonyl]-2-(tetrahydro-pyran-4-yloxy)-cyclopentanecarboxylic acid (1-cyano-cyclopropyl)-amide]	0.217
Cc1cc(-c2ccc(S(=O)(=O)[C@H]3C[C@@H](OC4CCOCC4)[C@H](C(=O)NC4(C#N)CC4)C3)c(C(F)(F)F)c2)ccn1 (racemic) [Example 174, (1R,2R,4R) and (1S,2S,4S)-4-[4-(2-Methyl-pyridin-4-yl)-2-trifluoromethyl-benzenesulfonyl]-2-(tetrahydro-pyran-4-yloxy)-cyclopentanecarboxylic acid (1-cyano-cyclopropyl)-amide]	0.17
N#CC1(NC(=O)[C@@H]2C[C@@H](S(=O)(=O)c3ccccc3C(F)(F)F)C[C@H]2OC2CCOCC2)CC1 (racemic) [Example 175, (1R,2R,4R) and (1S,2S,4S)-2-(Tetrahydro-pyran-4-yloxy)-4-(2-trifluoromethyl-benzenesulfonyl)-cyclopentanecarboxylic acid (1-cyano-cyclopropyl)-amide]	0.48
CO[C@@H]1C[C@H](S(=O)(=O)c2ccc(N3CCOCC3)cc2C(F)(F)F)C[C@H]1C(=O)NC1(C#N)CC1 (racemic) [Example 176, (1R,2R,4R) and (1S,2S,4S)-2-Methoxy-4-(4-morpholin-4-yl-2-trifluoromethyl-benzenesulfonyl)-cyclopentanecarboxylic acid (1-cyano-cyclopropyl)-amide]	1.47
CO[C@@H]1C[C@H](S(=O)(=O)c2ccc(N3CCN(C(C)C)CC3)cc2C(F)(F)F)C[C@H]1C(=O)NC1(C#N)CC1 (racemic) [Example 177, (1R,2R,4R) and (1S,2S,4S)-4-[4-(4-Isopropyl-piperazin-1-yl)-2-trifluoromethyl-benzenesulfonyl]-2-methoxy-cyclopentanecarboxylic acid (1-cyano-cyclopropyl)-amide]	0.923
N#CC1(NC(=O)[C@@H]2C[C@@H](S(=O)(=O)c3ccc(Br)cc3C(F)(F)F)C[C@H]2OC2CCC2)CC1 (racemic) [Example 182, (1R,2R,4R) and (1S,2S,4S)-4-(4-Bromo-2-trifluoromethyl-benzenesulfonyl)-2-cyclobutoxy-cyclopentanecarboxylic acid (1-cyano-cyclopropyl)-amide]	3.8

Second part, the molecule after the results:

IC50 [nM]	Compound
0.885	CO[C@@H]1C[C@H](S(=O)(=O)c2ccc(N3CCC(F)(F)CC3)cc2C(F)(F)F)C[C@H]1C(=O)NC1(C#N)CC1 (racemic) [Example 178, (1R,2R,4R) and (1S,2S,4S)-4-[4-(4,4-Difluoro-piperidin-1-yl)-2-trifluoromethyl-benzenesulfonyl]-2-methoxy-cyclopentanecarboxylic acid (1-cyano-cyclopropyl)-amide]
0.3	COC(=O)Cn1cc(-c2ccc(S(=O)(=O)[C@H]3C[C@@H](OC)[C@H](C(=O)NC4(C#N)CC4)C3)c(C(F)(F)F)c2)cn1 (racemic) [Example 179, (4-{4-[(1R,3R,4R) and (1S,3S,4S)-3-(1-Cyano-cyclopropylcarbamoyl)-4-methoxy-cyclopentanesulfonyl]-3-trifluoromethyl-phenyl}-pyrazol-1-yl)-acetic acid methyl ester]
157	N#CC1(NC(=O)[C@@H]2C[C@@H](S(=O)(=O)c3ccccc3Cl)C[C@H]2OCc2cc(F)c(Cl)cc2Cl)CC1 (racemic) [Example 180, (1R,2R,4R) and (1S,2S,4S)-4-(2-Chlorophenylsulfonyl)-N-(1-cyanocyclopropyl)-2-(2,4-dichloro-5-fluorobenzyloxy)cyclopentanecarboxamide]
1.32	N#CC1(NC(=O)[C@@H]2C[C@@H](S(=O)(=O)c3ccc(Br)cc3C(F)(F)F)C[C@H]2OC2CCS(=O)(=O)CC2)CC1 (racemic) [Example 181, (1R,2R,4R) and (1S,2S,4S)-4-(4-Bromo-2-trifluoromethyl-benzenesulfonyl)-2-[(tetrahydro-1,1-dioxo-2H-thiopyran-4-yl)oxy]-cyclopentanecarboxylic acid (1-cyano-cyclopropyl)-amide]
0.2	Cc1cc(-c2ccc(S(=O)(=O)[C@H]3C[C@@H](OC4CCS(=O)(=O)CC4)[C@H](C(=O)NC4(C#N)CC4)C3)c(C(F)(F)F)c2)ccn1 (racemic) [Example 183, (1R,2R,4R) and (1S,2S,4S)-2-[(tetrahydro-1,1-dioxo-2H-thiopyran-4-yl)oxy]-4-[4-(2-methyl-pyridin-4-yl)-2-trifluoromethyl-benzenesulfonyl]-cyclopentanecarboxylic acid (1-cyano-cyclopropyl)-amide]
0.16	Cn1cc(-c2ccc(S(=O)(=O)[C@H]3C[C@@H](OC4CCS(=O)(=O)CC4)[C@H](C(=O)NC4(C#N)CC4)C3)c(C(F)(F)F)c2)cn1 (racemic) [Example 184, (1R,2R,4R) and (1S,2S,4S)-2-[(tetrahydro-1,1-dioxo-2H-thiopyran-4-yl)oxy]-4-[4-(1-methyl-1H-pyrazol-4-yl)-2-trifluoromethyl-benzenesulfonyl]-cyclopentanecarboxylic acid (1-cyano-cyclopropyl)-amide]
0.725	CO[C@@H]1C[C@H](S(=O)(=O)c2ccc(-c3cnn(CC(=O)O)c3)cc2C(F)(F)F)C[C@H]1C(=O)NC1(C#N)CC1 (racemic) [Example 185, (4-{4-[(1R,3R,4R) and (1S,3S,4S)-3-(1-Cyano-cyclopropylcarbamoyl)-4-methoxy-cyclopentanesulfonyl]-3-trifluoromethyl-phenyl}-pyrazol-1-yl)-acetic acid]
1.67	CO[C@@H]1C[C@H](S(=O)(=O)c2ccc(N3CCN(CC(F)(F)F)CC3)cc2C(F)(F)F)C[C@H]1C(=O)NC1(C#N)CC1 (racemic) [Example 193, (1R,2R,4R) and (1S,2S,4S)-2-Methoxy-4-{4-[4-(2,2,2-trifluoro-ethyl)-piperazin-1-yl]-2-trifluoromethyl-benzenesulfonyl}-cyclopentanecarboxylic acid (1-cyano-cyclopropyl)-amide]

— US20100317647A1 (priority 2009, published 2010)
